Source: paper PMC5799168 (Scientific Reports, 2018)
Where two headings read alike, the source gives them in different places.

Key:
Ndi1 [1] = biological target: T1, Ndi1 (Saccharomyces cerevisiae, UniProt P32340); test: Inhibition of NADH-ubiquinone-1 oxidoreductase activity of the purified Ndi1; assay type: biochemical; conditions: for IC50: NADH-ubiquinone-1 oxidoreductase activity, purified recombinant Ndi1, 100 µM NADH, pH 6.0, mean ± S.E.M of three independent experiments; for Inhibition mode: inhibition mode for ubiquinone-1, from intersection point in Lineweaver-Burk plots, 100 µM NADH; for Ki: non-linear regression of mixed type inhibition (GraphPad Prism 6), versus ubiquinone-1; for Ki / α (α > 0): mean ± S.D.; for α (α > 0): α of mixed model inhibition fit (αKi = dissociation constant of ternary enzyme-substrate-inhibitor complex)
T1 construct: The mature Ndi1, which lacks a mitochondrial targeting; (His)10; made in house; host or cells: E. coli BL21(DE3)pLysS, plasmid pET16b(NDI1-m)
T1 sequence (P32340 27-513): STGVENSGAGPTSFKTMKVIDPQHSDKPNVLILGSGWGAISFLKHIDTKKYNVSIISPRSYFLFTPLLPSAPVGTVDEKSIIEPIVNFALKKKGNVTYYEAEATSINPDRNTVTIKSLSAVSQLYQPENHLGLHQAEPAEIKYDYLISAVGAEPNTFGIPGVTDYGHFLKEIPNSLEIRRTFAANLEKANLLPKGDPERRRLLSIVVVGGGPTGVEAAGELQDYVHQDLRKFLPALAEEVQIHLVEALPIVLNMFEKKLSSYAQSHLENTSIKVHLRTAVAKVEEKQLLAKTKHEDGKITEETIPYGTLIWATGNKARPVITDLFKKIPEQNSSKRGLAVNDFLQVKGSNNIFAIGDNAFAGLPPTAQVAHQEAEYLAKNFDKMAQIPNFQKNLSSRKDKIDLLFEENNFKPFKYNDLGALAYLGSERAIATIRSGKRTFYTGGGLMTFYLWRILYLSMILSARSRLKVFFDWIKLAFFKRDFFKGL
Protocol: NADH-ubiquinone oxidoreductase activity was measured as described previously. In brief, the reaction was started by adding 100 µM NADH to the enzyme mixture containing 10 ng/mL Ndi1, 50 mM sodium phosphate (pH 6.0) and 1 mM EDTA, which was pre-incubated with various concentrations of ubiquinone-1 for 1 min. […] The concentrations of inhibitors required to obtain the half-maximal inhibition (IC50) were estimated by non-linear regression dose-response curves. The inhibition mode of each inhibitor for ubiquinone-1 was determined by the intersection point in double-reciprocal plots (Fig. 2B–E). To objectively evaluate the inhibition mode, the data of the inhibition kinetics were fitted to the Eq.
This equation provides two dissociation constants, one for the binary enzyme-inhibitor complex (Ki), the other for the ternary enzyme-substrate-inhibitor complex (αKi).

Ndi1 [2] = biological target: T1, Ndi1; parameters: method as in PMID 17200125; conditions: inhibition of Ndi1; cited from earlier work

Row | SMILES | IC50 (Ndi1 [1]) [nM] | Inhibition mode (Ndi1 [1]) | Ki (Ndi1 [1]) [nM] | α (α > 0) (Ndi1 [1]) | IC50 (Ndi1 [2]) [nM] | α (α > 0) (Ndi1 [1]; listed as stigmatellin)
1 | CCCCCCCCCCCCc1cc(=O)c2ccccc2n1O [AC0-12, 1-hydroxy-2-dodecyl-4(1 H) quinolone] | 115 ± 18 | mixed | 14 ± 1.9 | 13.0±11.7 |  | 
2 | CCCCCCCCCCCc1cc(=O)c2ccccc2n1O [AC0-11, 1-hydroxy-2-undecyl-4(1 H) quinolone] |  |  |  |  | 200 | 
3 | CC(/C=C/[C@@]1(C)[C@H](C)CCC(=O)[C@@H]1C)=C\Cc1c(O)c(Cl)c(C)c(C=O)c1O [Ascochlorin, ascochlorin] | 955 ± 139 | mixed | 728 ± 191 | 2.64±1.87 |  | 
4 | C/C=C(C)/C=C/C=C/[C@H](OC)[C@@H](C)[C@@H](OC)[C@@H](C)CCc1oc2c(O)c(OC)cc(OC)c2c(=O)c1C [Stigmatellin, stigmatellin] | 107 ± 21 | competitive | 93.9 ± 30.4 | ~6.33×10^20 |  | close to infinity
